The values that follow come from ChEMBL document CHEMBL3046685, “Otebo bean (Phaseolus vulgaris) sensitivity to pre-emergence herbicides” (Crop Prot, 2006).

The subject of data set [1] is Phaseolus vulgaris. Description: Phytotoxicity in Phaseolus vulgaris (dry bean) assessed as visual injury relative to control. Particulars: in vivo. The format is organism-based.
Data set [2] concerns Phaseolus vulgaris. Description: Phytotoxicity in Phaseolus vulgaris (black bean) assessed as visual injury treated through soil application relative to control. The format is organism-based. Particulars: in vivo, other.
Data set [3] relates to Phaseolus vulgaris. Description: Phytotoxicity in Phaseolus vulgaris (otebo bean) assessed as visual injury at 75 g ai/ha applied as spray during pre-emergence treatment for 1 to 2 days measured 14 days post emergence relative to untreated control. In kind it is organism-based. Particulars: in vivo, other.
Data set [4] concerns Phaseolus vulgaris. Description: Phytotoxicity in Phaseolus vulgaris (black bean) assessed as reduction in crop yield treated through soil application relative to control. The format is organism-based. Particulars: in vivo, other.
Data set [5] has as its system Phaseolus vulgaris. Description: Phytotoxicity in Phaseolus vulgaris (otebo bean) assessed as visual injury at 150 g ai/ha applied as spray during pre-emergence treatment for 1 to 2 days measured 7 days post emergence relative to untreated control. In kind it is organism-based. Particulars: in vivo, other.
In data set [6] the test system is Phaseolus vulgaris. Description: Phytotoxicity in Phaseolus vulgaris (otebo bean) assessed as shoot dry weight at 75 g ai/ha applied as spray during pre-emergence treatment for 1 to 2 days measured 42 days post emergence (reference value: 164 g). The format is organism-based. Particulars: in vivo, other.
The test system of data set [7] is Phaseolus vulgaris. Description: Phytotoxicity in Phaseolus vulgaris (cranberry bean) assessed as visual injury at 0.075 to 0.15 kg/ha applied prior to planting relative to control. Particulars: in vivo, other. In kind it is organism-based.
For data set [8], the system named is Phaseolus vulgaris. Description: Phytotoxicity in Phaseolus vulgaris (otebo bean) assessed as visual injury at 150 g ai/ha applied as spray during pre-emergence treatment for 1 to 2 days measured 14 days post emergence relative to untreated control. In kind it is organism-based. Particulars: in vivo, other.
Data set [9] concerns Phaseolus vulgaris. Description: Phytotoxicity in Phaseolus vulgaris (otebo bean) assessed as change in moisture content at 75 to 150 g ai/ha applied as spray during preemergence treatment for 1 to 2 days. Particulars: in vivo, other. In kind it is organism-based.
Data set [10] relates to Phaseolus vulgaris. Description: Phytotoxicity in Phaseolus vulgaris (pinto bean) assessed as visual injury at 75 g ai/ha applied prior to planting relative to control. Particulars: in vivo, other. In kind it is organism-based.
Data set [11] concerns Phaseolus vulgaris. Description: Phytotoxicity in Phaseolus vulgaris (cranberry bean) assessed as visual injury at 0.075 to 0.15 kg/ha applied during pre-emergence relative to control. Particulars: in vivo, other. The format is organism-based.
For data set [12], the system named is Phaseolus vulgaris. Description: Phytotoxicity in Phaseolus vulgaris (otebo bean) assessed as plant height at 75 g ai/ha applied as spray during pre-emergence treatment for 1 to 2 days measured 28 days post emergence (reference value: 29 cm). The format is organism-based. Particulars: in vivo, other.
In data set [13] the test system is Phaseolus vulgaris. Description: Phytotoxicity in Phaseolus vulgaris (otebo bean) assessed as visual injury at 75 g ai/ha applied as spray during pre-emergence treatment for 1 to 2 days measured 28 days post emergence relative to untreated control. The format is organism-based. Particulars: in vivo, other.
The test system of data set [14] is Phaseolus vulgaris. Description: Phytotoxicity in Phaseolus vulgaris (otebo bean) assessed as visual injury at 75 g ai/ha applied as spray during pre-emergence treatment for 1 to 2 days measured 7 days post emergence relative to untreated control. The format is organism-based. Particulars: in vivo, other.
Data set [15] has as its system Phaseolus vulgaris. Description: Phytotoxicity in Phaseolus vulgaris (otebo bean) assessed as visual injury at 150 g ai/ha applied as spray during pre-emergence treatment for 1 to 2 days measured 28 days post emergence relative to untreated control. Particulars: in vivo, other. In kind it is organism-based.
For data set [16], the system named is Phaseolus vulgaris. Description: Increase in Phaseolus vulgaris (otebo bean) yield at 75 g ai/ha applied as spray during pre-emergence treatment for 1 to 2 days (reference value: 3.8 t/ha). In kind it is functional.
In data set [17] the test system is Phaseolus vulgaris. Description: Phytotoxicity in Phaseolus vulgaris (otebo bean) assessed as shoot dry weight at 150 g ai/ha applied as spray during pre-emergence treatment for 1 to 2 days measured 42 days post emergence (reference value: 164 g). In kind it is organism-based. Particulars: in vivo, other.
Data set [18] concerns Phaseolus vulgaris. Description: Increase in Phaseolus vulgaris (otebo bean) yield at 150 g ai/ha applied as spray during pre-emergence treatment for 1 to 2 days (reference value: 3.8 t/ha). In kind it is functional.
Data set [19] has as its system Phaseolus vulgaris. Description: Phytotoxicity in Phaseolus vulgaris (otebo bean) assessed as plant height at 150 g ai/ha applied as spray during pre-emergence treatment for 1 to 2 days measured 28 days post emergence (reference value: 29 cm). In kind it is organism-based. Particulars: in vivo, other.
Data set [20] has as its system Phaseolus vulgaris. Description: Phytotoxicity in Phaseolus vulgaris (otebo bean) assessed as visual injury at 1000 g ai/ha applied as spray during pre-emergence treatment for 1 to 2 days measured 28 days post emergence relative to untreated control. The format is organism-based. Particulars: in vivo, other.
The test system of data set [21] is Phaseolus vulgaris. Description: Phytotoxicity in Phaseolus vulgaris (otebo bean) assessed as plant height at 2000 g ai/ha applied as spray during pre-emergence treatment for 1 to 2 days measured 28 days post emergence (reference value: 29 cm). The format is organism-based. Particulars: in vivo, other.
The test system of data set [22] is Phaseolus vulgaris. Description: Phytotoxicity in Phaseolus vulgaris (otebo bean) assessed as shoot dry weight at 2000 g ai/ha applied as spray during pre-emergence treatment for 1 to 2 days measured 42 days post emergence (reference value: 164 g). The format is organism-based. Particulars: in vivo, other.
The subject of data set [23] is Phaseolus vulgaris. Description: Phytotoxicity in Phaseolus vulgaris (otebo bean) assessed as visual injury at 2000 g ai/ha applied as spray during pre-emergence treatment for 1 to 2 days measured 28 days post emergence relative to untreated control. In kind it is organism-based. Particulars: in vivo, other.
In data set [24] the test system is Phaseolus vulgaris. Description: Increase in Phaseolus vulgaris (otebo bean) yield at 2000 g ai/ha applied as spray during pre-emergence treatment for 1 to 2 days (reference value: 3.8 t/ha). In kind it is functional.
Data set [25] relates to Phaseolus vulgaris. Description: Phytotoxicity in Phaseolus vulgaris (otebo bean) assessed as change in moisture content at 1000 to 2000 g ai/ha applied as spray during preemergence treatment for 1 to 2 days. The format is organism-based. Particulars: in vivo, other.
In data set [26] the test system is Phaseolus vulgaris. Description: Phytotoxicity in Phaseolus vulgaris (otebo bean) assessed as visual injury at 1000 g ai/ha applied as spray during pre-emergence treatment for 1 to 2 days measured 7 days post emergence relative to untreated control. The format is organism-based. Particulars: in vivo, other.
The test system of data set [27] is Phaseolus vulgaris. Description: Phytotoxicity in Phaseolus vulgaris (otebo bean) assessed as shoot dry weight at 1000 g ai/ha applied as spray during pre-emergence treatment for 1 to 2 days measured 42 days post emergence (reference value: 164 g). The format is organism-based. Particulars: in vivo, other.
The test system of data set [28] is Phaseolus vulgaris. Description: Phytotoxicity in Phaseolus vulgaris (otebo bean) assessed as plant height at 1000 g ai/ha applied as spray during pre-emergence treatment for 1 to 2 days measured 28 days post emergence (reference value: 29 cm). In kind it is organism-based. Particulars: in vivo, other.
The test system of data set [29] is Phaseolus vulgaris. Description: Phytotoxicity in Phaseolus vulgaris (otebo bean) assessed as visual injury at 2000 g ai/ha applied as spray during pre-emergence treatment for 1 to 2 days measured 14 days post emergence relative to untreated control. The format is organism-based. Particulars: in vivo, other.
Data set [30] relates to Phaseolus vulgaris. Description: Increase in Phaseolus vulgaris (otebo bean) yield at 1000 g ai/ha applied as spray during pre-emergence treatment for 1 to 2 days (reference value: 3.8 t/ha). In kind it is functional.
The test system of data set [31] is Phaseolus vulgaris. Description: Phytotoxicity in Phaseolus vulgaris (otebo bean) assessed as visual injury at 2000 g ai/ha applied as spray during pre-emergence treatment for 1 to 2 days measured 7 days post emergence relative to untreated control. The format is organism-based. Particulars: in vivo, other.
In data set [32] the test system is Phaseolus vulgaris. Description: Phytotoxicity in Phaseolus vulgaris (otebo bean) assessed as visual injury at 1000 g ai/ha applied as spray during pre-emergence treatment for 1 to 2 days measured 14 days post emergence relative to untreated control. Particulars: in vivo, other. The format is organism-based.

Each structure is given as a SMILES string.

In the case of `CCc1cnc(C2=NC(C)(C(C)C)C(=O)N2)c(C(=O)O)c1` (configuration not stated) [IMAZETHAPYR], the Activity result is “<= 20%” in the data set with Phaseolus vulgaris [1]; “<= 6%” in the data set with Phaseolus vulgaris [2]; 0% in the data set on Phaseolus vulgaris [3]; 0% in the data set on Phaseolus vulgaris [5]; 118 g in the data set with Phaseolus vulgaris [6]; less than 5% in the data set on Phaseolus vulgaris [7]. The Activity with Phaseolus vulgaris [8] is recorded as 1%; with Phaseolus vulgaris [9], “Non-toxic”; in the data set with Phaseolus vulgaris [10], less than 6%; with Phaseolus vulgaris [11], less than 5%; in the data set on Phaseolus vulgaris [12], 26 cm; in the data set with Phaseolus vulgaris [13], 6%. The Activity in the data set on Phaseolus vulgaris [14] was determined as 0%; in the data set with Phaseolus vulgaris [15], 16%; in the data set on Phaseolus vulgaris [17], 95 g; in the data set on Phaseolus vulgaris [19], 22 cm. Moreover, the Crop_yield was determined as 49% in the data set with Phaseolus vulgaris [4], 3.2 tons/ha in the data set on Phaseolus vulgaris [16] and 2.9 tons/ha in the data set on Phaseolus vulgaris [18].

Take `CC1(C)CON(Cc2ccccc2Cl)C1=O` [CLOMAZONE]: the Activity with Phaseolus vulgaris [20] was 2%; in the data set on Phaseolus vulgaris [21] it was 26 cm; with Phaseolus vulgaris [22] it was 123 g; in the data set with Phaseolus vulgaris [23], 9%; in the data set on Phaseolus vulgaris [25], “Non-toxic”; in the data set on Phaseolus vulgaris [26], 5%. Further, the Activity is listed as 143 g in the data set with Phaseolus vulgaris [27]; 28 cm in the data set on Phaseolus vulgaris [28]; 12% in the data set on Phaseolus vulgaris [29]; 13% in the data set with Phaseolus vulgaris [31]; 5% with Phaseolus vulgaris [32]. The Crop_yield with Phaseolus vulgaris [24] came out at 4.1 tons/ha; in the data set on Phaseolus vulgaris [30], 4.5 tons/ha.
